Test results: ChEMBL document CHEMBL5724696, “Autophagy assay results for EUbOPEN Chemogenomics Library” (2024)

Tested on: TERT-RPE1
Assay: Here: values are normalized to the negative (DMSO; defined as 0% autophagy induction) and positive (250nM Torin1; mTOR inhibitor; defined as maximal inducer of autophagy = 100%) control compounds and represented as % of autophagy induction. […] The impact of autophagy induction on cells is complex and depends on the affected target. As such, the magnitude of a phenotype may not be equally mirrored in the %-value of autophagy induction and vice versa. The dynamics of the induction may indicate the mode of activation: e.g. activation via phosphorylation or a signaling cascade may occur fast, while activation via transcription factors may take considerably longer. […] Of note, treatment concentrations may be sub-optimal for specific compounds, leading to false negative annotations.
Assay type: functional, Homo sapiens
Conditions: Culturing Media DMEM/F12 (1:1), 1 % Penicillin/Streptomycin, 10% Fetal bovin serum Add-On: No, Screening Media Control DMEM/F12 (1:1), Screening Media Samples DMEM/F12 (1:1)
[1] = Compound Concentration 1 uM, Timepoint 12 hours
[2] = Compound Concentration 1 uM, Timepoint 24 hours
[3] = Compound Concentration 1 uM, Timepoint 36 hours
[4] = Compound Concentration 1 uM, Timepoint 60 hours
[5] = Compound Concentration 10 uM, Timepoint 12 hours
[6] = Compound Concentration 10 uM, Timepoint 24 hours
[7] = Compound Concentration 10 uM, Timepoint 36 hours
[8] = Compound Concentration 10 uM, Timepoint 60 hours

Row | Compound | autophagy induction [1] [%] | autophagy induction [2] [%] | autophagy induction [3] [%] | autophagy induction [4] [%] | autophagy induction [5] [%] | autophagy induction [6] [%] | autophagy induction [7] [%] | autophagy induction [8] [%]
1 | CC(C)(O)c1cn(-c2ccc(-c3cccc(S(C)(=O)=O)c3)cc2)c(C(C)(C)c2ccccc2Cl)n1 [BMS-779788] | -11.1228 | -2.718 | 17.5149 | -24.6575 | – | – | – | –
2 | C=C1/C(=C\C=C2/CCC[C@]3(C)[C@@H]([C@H](C)CCCC(C)(C)O)CC[C@@H]23)C[C@@H](O)C[C@@H]1O [CALCITRIOL] | 36.7455 | -4.807 | 11.5028 | -14.2726 | – | – | – | –
3 | O=C(O)c1ccnc(N2CC(O)(c3ccc(OCc4c(-c5c(Cl)cccc5Cl)noc4C4CC4)cc3Cl)C2)c1 [CILOFEXOR] | 6.577 | 4.142 | 10.1768 | 9.429 | – | – | – | –
4 | CC(C)(C[C@H]1CN(S(=O)(=O)c2cccc(C(F)(F)F)c2)c2cc(-c3cc(F)cc(OC(F)F)c3)ccc2O1)C(=O)O [CINTIRORGON] | -13.5912 | -2.372 | 17.7364 | -18.8569 | – | – | – | –
5 | C[C@H]1[C@H]2CC[C@H]3[C@@H]4CC=C5C[C@@H](N(C)C)CC[C@]5(C)[C@H]4CC[C@]23CN1C [CONESSINE] | -9.079 | -15.7832 | -16.9143 | 14.1244 | – | – | – | –
6 | C=C1/C(=C\C=C2/CCC[C@]3(C)[C@@H]([C@H](C)/C=C/[C@H](C)C(C)C)CC[C@@H]23)C[C@@H](O)C[C@@H]1O [DOXERCALCIFEROL] | -0.6335 | -0.7736 | 0.8774 | -4.588 | – | – | – | –
7 | CSc1ccc(C(=O)/C=C/c2cc(C)c(OC(C)(C)C(=O)O)c(C)c2)cc1 [ELAFIBRANOR] | -15.4717 | -8.668 | 8.143 | -14.713 | – | – | – | –
8 | CC(C)c1c(CN(C)C(C)Cc2ccccc2)n(C)n(-c2ccccc2)c1=O (stereo not drawn) [FAMPROFAZONE] | -9.526 | -5.45 | -2.084 | -36.1562 | – | – | – | –
9 | COC(=O)/C=C/c1cccc(N(Cc2ccc(-c3ccc(N(C)C)cc3)cc2)C(=O)C2CCCCC2)c1 [FEXARAMINE] | -11.8732 | 0.4959 | 16.8927 | -24.9579 | – | – | – | –
10 | CCc1ccc(N(CC(C)C)S(=O)(=O)c2ccc(OCC3CCOCC3)c(CO)c2)cc1 [GSK2981278] | 1.382 | -2.385 | -1.59 | 5.376 | – | – | – | –
11 | CCCCCCCN(CCc1ccc(SC(C)(C)C(=O)O)cc1)C(=O)Nc1ccc(F)cc1F [GSK-9578] | -3.328 | -4.346 | -1.192 | -5.756 | – | – | – | –
12 | CC(C)(Sc1ccc(CCN(CCCCC2CCCCC2)C(=O)NC2CCCCC2)cc1)C(=O)O [GW7647] | -14.4765 | -1.331 | 15.0253 | -17.5748 | – | – | – | –
13 | Cc1cc(SCc2sc(-c3ccc(C(F)(F)F)cc3)nc2C)ccc1OCC(=O)O [GW501516] | 35.2172 | -7.412 | 9.218 | -19.4944 | – | – | – | –
14 | Cc1nc(-c2ccc(C(F)(F)F)cc2)sc1C(=O)NCc1ccc(OC(C)(C)C(=O)O)cc1 [GW590735] | -16.082 | -2.956 | 16.0196 | -2.481 | – | – | – | –
15 | O=C(O)CCCc1cc2cc(Cl)ccc2n1S(=O)(=O)c1ccc2ncsc2c1 [LANIFIBRANOR] | -95.7021 | -0.9693 | 14.6224 | -20.9711 | – | – | – | –
16 | N[C@@H](Cc1cc(I)c(Oc2ccc(O)c(I)c2)c(I)c1)C(=O)O [LIOTHYRONINE] | 142.376 | -11.4171 | 8.172 | -7.587 | – | – | – | –

Row | Compound | autophagy induction [1] [%] | autophagy induction [2] [%] | autophagy induction [3] [%] | autophagy induction [4] [%] | autophagy induction [5] [%] | autophagy induction [6] [%] | autophagy induction [7] [%] | autophagy induction [8] [%]
17 | CC[C@H](C)C(=O)O[C@H]1C[C@@H](C)C=C2C=C[C@H](C)[C@H](CC[C@@H]3C[C@@H](O)CC(=O)O3)[C@H]21 [LOVASTATIN] | -7.01 | 13.8584 | 45.8036 | 48.5439 | – | – | – | –
18 | COc1ccc(OC(=O)N(CC(=O)O)Cc2ccc(OCCc3nc(-c4ccccc4)oc3C)cc2)cc1 [MURAGLITAZAR] | 84.7945 | -9.438 | 5.064 | -9.533 | – | – | – | –
19 | O=C(O)c1ccc2cc(-c3ccc(O)c(C45CC6CC(CC(C6)C4)C5)c3)ccc2c1 [O-DEMETHYLATED ADAPALENE] | -7.665 | -12.7242 | -13.449 | 12.49 | – | – | – | –
20 | CC[C@H]1[C@@H](O)[C@@H]2[C@H](CC[C@]3(C)[C@@H]([C@H](C)CCC(=O)O)CC[C@@H]23)[C@@]2(C)CC[C@@H](O)C[C@@H]12 [OBETICHOLIC ACID] | -8.507 | -7.962 | -3.9436 | 2.71 | – | – | – | –
21 | O=c1[nH]c2ccccc2n1CCCN1CCN(C(c2ccccc2)c2ccccc2)CC1 [OXATOMIDE] | – | – | – | – | 12.1676 | 23.0166 | 23.6799 | -2.469
22 | CCC(C)N(C)C(=O)c1cc2ccccc2c(-c2ccccc2Cl)n1 (stereo not drawn) [PK-11195] | – | – | – | – | -6.134 | 6.633 | 20.4099 | 30.5956
23 | CC(C)c1cc(Oc2c(Cl)cc(-n3nc(C#N)c(=O)[nH]c3=O)cc2Cl)n[nH]c1=O [RESMETIROM] | -11.5681 | 0.0003786 | 17.8213 | -19.2681 | – | – | – | –
24 | CO[C@H]1/C=C/O[C@@]2(C)Oc3c(C)c(O)c4c(O)c(c(/C=N/N5CCN(C)CC5)c(O)c4c3C2=O)NC(=O)/C(C)=C\C=C\[C@H](C)[C@H](O)[C@@H](C)[C@@H](O)[C@@H](C)[C@H](OC(C)=O)[C@@H]1C [RIFAMPIN] | -6.53 | -7.862 | -4.147 | 5.829 | – | – | – | –
25 | CN(CCOc1ccc(CC2SC(=O)NC2=O)cc1)c1ccccn1 (stereo not drawn) [ROSIGLITAZONE] | -11.8893 | 0.9014 | 16.9691 | -11.1596 | – | – | – | –
26 | C=C1/C(=C\C=C2/CCC[C@]3(C)[C@@H]([C@H](C)/C=C/C=C/C(O)(CC)CC)CC[C@@H]23)C[C@@H](O)C[C@@H]1O [SEOCALCITOL] | 1.435 | 3.014 | 6.115 | 9.3722 | – | – | – | –
27 | Cc1cc(OCC(=O)O)cc(C)c1Cc1ccc(O)c(C(C)C)c1 [SOBETIROME] | -4.298 | -6.005 | 3.899 | 12.5403 | – | – | – | –
28 | CCOC(=O)N1CCC(CN(Cc2ccc(Cl)cc2)Cc2ccc([N+](=O)[O-])s2)C1 (stereo not drawn) [SR9009] | -2.29 | -4.7715 | -4.329 | -0.7127 | – | – | – | –
29 | CCCCCNC(=O)N1CCC(CN(Cc2ccc(Cl)cc2)Cc2ccc([N+](=O)[O-])s2)C1 (stereo not drawn) [SR9011] | -13.327 | -1.26 | 19.5212 | -21.0748 | – | – | – | –
30 | O=S(=O)(c1ccccc1)N(CC(F)(F)F)c1ccc(C(O)(C(F)(F)F)C(F)(F)F)cc1 [T091317] | -11.1926 | -0.1715 | 8.77 | -29.9579 | – | – | – | –
31 | CC1(C)CCC(C)(C)c2cc(NC(=O)c3ccc(C(=O)O)cc3)ccc21 [TAMIBAROTENE] | -36.8107 | -29.3713 | -7.633 | 34.9259 | – | – | – | –
32 | CCOC(=O)c1ccc(C#Cc2ccc3c(c2)C(C)(C)CCS3)nc1 [TAZAROTENE] | -17.2771 | -27.562 | -16.2551 | 40.4791 | – | – | – | –
